Experimental data: patent US7531533B2, “6-Membered heterocyclic compound and use thereof” (Asahi Kasei Pharma Corporation, priority 2005, dated 2009)

biological target: T1, human EP4 receptor (Homo sapiens, UniProt P35408); test: Agonist activity measurement (cAMP production) using human EP4 receptor expressing HEK293 cells; assay type: cell-based; details: test compound concentration of 10 μM, HEK293 stably expressing human EP4
T1 construct: expressed in transfected cells
Protocol: Agonist Activity Measurement Using Human EP4 Receptor Expressing Cells
In order to investigate EP4 receptor agonist activity of the compounds of the present invention, cAMP production was measured by using HEK293 in which the human EP4 receptor was stably expressed.
As a result of searching for prostaglandin E receptors using Refseq Database, the gene information of human EP4 (NM_000958) receptor was obtained. On the basis of the sequence information, the human EP4 receptor gene was cloned by PCR using human cDNA as a template in a conventional manner to establish HEK293 in which the human EP4 receptor was stably expressed. These cells were inoculated on a 96-well poly-D-lysine coated plate at a density of 2×10^4 cells/well, and cultured for 1 day. The medium in the wells was removed by aspiration, 80 μL of Dulbecco's modified Eagle's medium was added to each well, and the cells were incubated at 37° C. for 15 minutes. Then, 20 μL of an assay medium (Dulbecco's modified Eagle's medium containing 100 mM HEPES and 1 mM IBMX) containing PGE2 or a test compound (at 5-fold concentration of the final concentration) was added to start the reaction, and the reaction was allowed at 37° C. for 30 minutes. Then, the medium was removed by aspiration, and the reaction was terminated by adding 100 μL of Assay/Lysis Buffer included in cAMP Screen Kit (produced by Applied Biosystems). Then, the cells were incubated at 37° C. for 30 minutes, and used as a sample for cAMP quantification. By using this sample, amount of cAMP in the sample was quantified according to the method attached to cAMP Screen Kit.

T1 sequence (P35408 whole entry): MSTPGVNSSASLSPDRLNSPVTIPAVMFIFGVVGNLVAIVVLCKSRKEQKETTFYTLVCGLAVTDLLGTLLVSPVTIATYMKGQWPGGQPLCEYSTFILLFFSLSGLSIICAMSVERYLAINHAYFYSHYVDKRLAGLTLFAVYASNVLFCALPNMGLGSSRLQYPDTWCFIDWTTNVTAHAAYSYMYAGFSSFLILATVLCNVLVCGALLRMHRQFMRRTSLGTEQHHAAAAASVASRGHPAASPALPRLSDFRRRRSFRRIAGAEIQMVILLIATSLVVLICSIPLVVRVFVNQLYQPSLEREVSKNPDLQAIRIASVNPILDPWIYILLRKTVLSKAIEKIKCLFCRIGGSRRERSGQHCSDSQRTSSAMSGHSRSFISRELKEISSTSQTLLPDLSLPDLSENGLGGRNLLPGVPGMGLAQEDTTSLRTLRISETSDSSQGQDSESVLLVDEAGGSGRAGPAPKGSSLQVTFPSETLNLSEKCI

SMILES	increase of cAMP
O=C(O)c1ccc(CCN2C(=O)CCCN2CCC(O)Cc2cccc(C(F)(F)F)c2)cc1 (stereo not shown) [IAH-H001, 4-[2-(2-{3-hydroxy-4-[3-(trifluoromethyl)phenyl]butyl}-6-oxotetrahydropyridazin-1-yl)ethyl]benzoic acid]	Increase of cAMP was observed
O=C(O)c1ccc(CCN2C(=O)CCCN2CCC(O)c2ccccc2)cc1 (stereo not shown) [IAH-H002]	Increase of cAMP was observed
O=C(O)c1ccc(CCN2C(=O)CCCN2CCC(O)c2ccc(F)cc2)cc1 (stereo not shown) [IAH-H003, 4-(2-{2-[3-hydroxy-3-(4-fluorophenyl)propyl]-6-oxotetrahydro-pyridazin-1-yl}ethyl)benzoic acid]	Increase of cAMP was observed
O=C(O)c1ccc(CCN2C(=O)CCCN2CCC(O)c2cccc(-c3ccc(F)cc3)c2)cc1 (stereo not shown) [IAH-H004, 4-[2-(2-{3-hydroxy-3-[3-(4-fluorophenyl)phenyl]propyl}-6-oxotetrahydropyridazin-1-yl)ethyl]benzoic acid]	Increase of cAMP was observed
COc1cccc(CC(O)CCN2CCCC(=O)N2CCc2ccc(C(=O)O)cc2)c1 (stereo not shown) [IAH-H005, 4-(2-{2-[3-hydroxy-4-(3-methoxyphenyl)butyl]-6-oxotetrahydro-pyridazin-1-yl}ethyl)benzoic acid]	Increase of cAMP was observed
O=C(O)c1ccc(CCN2C(=O)CCCN2CCC(O)Cc2cccc(Cl)c2)cc1 (stereo not shown) [IAH-H024, 4-[2-(2-{4-[3-chlorophenyl]-3-hydroxybutyl}-6-oxotetrahydropyridazin-1-yl)ethyl]benzoic acid]	Increase of cAMP was observed
O=C(O)COc1cccc(CN2C(=O)CCCN2CCC(O)Cc2cccc(C(F)(F)F)c2)c1 (stereo not shown) [ICH-H001, 2-{3-[(2-{3-hydroxy-4-[3-(trifluoromethyl)phenyl]butyl}-6-oxotetrahydropyridazin-1-yl)methyl]phenyloxy}acetic acid]	Increase of cAMP was observed
O=C(O)c1cccc(OCCN2C(=O)CCCN2CCC(O)Cc2cccc(C(F)(F)F)c2)c1 (stereo not shown) [IDH-H001, 3-[2-(2-{3-hydroxy-4-[3-(trifluoromethyl)phenyl]butyl}-6-oxotetrahydropyridazin-1-yl)ethyloxy]benzoic acid]	Increase of cAMP was observed
O=C(O)c1ccc(OCCN2C(=O)CCCN2CCC(O)Cc2cccc(C(F)(F)F)c2)cc1 (stereo not shown) [IEH-H001, 4-[2-(2-{3-hydroxy-4-[3-(trifluoromethyl)phenyl]butyl}-6-oxo-tetrahydropyridazin-1-yl)ethyloxy]benzoic acid]	Increase of cAMP was observed
O=C(O)c1cccc(CCCN2C(=O)CCCN2CCC(O)Cc2cccc(C(F)(F)F)c2)c1 (stereo not shown) [IFH-H001, 3-[3-(2-{3-hydroxy-4-[3-(trifluoromethyl)phenyl]butyl}-6-oxo-tetrahydropyridazin-1-yl)propyl]benzoic acid]	Increase of cAMP was observed
O=C(O)c1ccc(CCCN2C(=O)CCCN2CCC(O)Cc2cccc(C(F)(F)F)c2)cc1 (stereo not shown) [IGH-H001, 4-[3-(2-{3-hydroxy-4-[3-(trifluoromethyl)phenyl]butyl}-6-oxotetrahydropyridazin-1-yl)propyl]benzoic acid]	Increase of cAMP was observed
O=C(O)c1ccc(CCCN2C(=O)CCCN2CCC(O)Cc2cccc(C(F)(F)F)c2)o1 (stereo not shown) [IHH-H001, 5-[3-(2-{3-hydroxy-4-[3-(trifluoromethyl)phenyl]butyl}-6-oxotetrahydropyridazin-1-yl)propyl]furan-2-carboxylic acid]	Increase of cAMP was observed
O=C(O)Cc1ccc(CN2C(=O)CCCN2CCC(O)Cc2cccc(C(F)(F)F)c2)cc1 (stereo not shown) [IKH-H001, 2-{4-[(2-{3-hydroxy-4-[3-(trifluoromethyl)phenyl]butyl}-6-oxotetrahydropyridazin-1-yl)methyl]phenyl}acetic acid]	Increase of cAMP was observed
O=C(O)Cc1cccc(CN2C(=O)CCCN2CCC(O)Cc2cccc(C(F)(F)F)c2)c1 (stereo not shown) [ILH-H001, 2-{3-[(2-{3-hydroxy-4-[3-(trifluoromethyl)phenyl]butyl}-6-oxotetrahydropyridazin-1-yl)methyl]phenyl}acetic acid]	Increase of cAMP was observed
O=C(O)C=Cc1cccc(CN2C(=O)CCCN2CCC(O)Cc2cccc(C(F)(F)F)c2)c1 (stereo not shown) [IOH-H001, 3-{3-[(2-{3-hydroxy-4-[3-(trifluoromethyl)phenyl]butyl}-6-oxotetrahydropyridazin-1-yl)methyl]phenyl}acrylic acid]	Increase of cAMP was observed
O=C(O)CCc1cccc(CN2C(=O)CCCN2CCC(O)Cc2cccc(C(F)(F)F)c2)c1 (stereo not shown) [IPH-H001, 3-{3-[(2-{3-hydroxy-4-[3-(trifluoromethyl)phenyl]butyl}-6-oxotetrahydropyridazin-1-yl)methyl]phenyl}propionic acid]	Increase of cAMP was observed
O=C(O)c1ccc(CCN2C(=S)CCCN2CCC(O)Cc2cccc(C(F)(F)F)c2)cc1 (stereo not shown) [ITH-H001, 4-[2-(2-{3-hydroxy-4-[3-(trifluoromethyl)phenyl]butyl}-6-thioxotetrahydropyridazin-1-yl)ethyl]benzoic acid]	Increase of cAMP was observed

tested on: rat bone marrow cells; test: Bone nodule formation action in rat bone marrow cells; assay type: cell-based; details: concentration ranging from 1 nM to 10 μM; von Kossa staining 21 to 28 days after addition
Protocol: Bone Nodule Formation Action in Rat Bone Marrow Cells
In order to investigate osteogenesis promoting action of the compounds of the present invention, the compounds were made to act on cultured rat bone marrow cells, and the number of formed bone nodule was counted.
As rat bone marrow cells, mesenchymal cells (KEM100) derived from rat bone marrow purchased from Dainippon Pharmaceutical were used. The cells stored in liquid nitrogen were thawed at 37° C., then suspended in a phosphate-buffered saline, and centrifuged at 900 rpm for 5 minutes. The supernatant was removed, and the cells were suspended again in a MEM culture medium (produced by GIBCO) containing 10% fetal bovine serum (produced by GIBCO). After the number of cells was counted, the cells were inoculated on a 12-well plate (produced by IWAKI) at a cell density of 1×10^4 cells/cm^2, and cultured at 37° C. in a 5% CO2 incubator. From the next day of the inoculation, the medium was exchanged with the α MEM culture medium containing 10% fetal bovine serum every 2 or 3 days, and the cells were proliferated to the confluent state. The addition of the compound was conducted from the next day after the cells reached confluent. […]

SMILES	bone nodule formation promoting action (number of mineralized bone nodule formed)
O=C(O)c1ccc(CCN2C(=O)CCCN2CCC(O)Cc2cccc(C(F)(F)F)c2)cc1 (stereo not shown) [IAH-H001, 4-[2-(2-{3-hydroxy-4-[3-(trifluoromethyl)phenyl]butyl}-6-oxotetrahydropyridazin-1-yl)ethyl]benzoic acid]	exhibited an bone nodule formation promoting action in a dose-dependent manner

same assay, conditions: rat bone marrow cells, 1 nM to 10 μM

SMILES	cytotoxicity
O=C(O)c1ccc(CCN2C(=O)CCCN2CCC(O)Cc2cccc(C(F)(F)F)c2)cc1 (stereo not shown) [IAH-H001, 4-[2-(2-{3-hydroxy-4-[3-(trifluoromethyl)phenyl]butyl}-6-oxotetrahydropyridazin-1-yl)ethyl]benzoic acid]	no cytotoxicity
